Experimental data reported in patent US20090317444A1, “PROCESS FOR CELL PROLIFERATION” (BIOBERICA, S.A., priority 2006, published 2009).
“Also recorded” adds a separate entry of the source.

How the values were obtained:
[1] = test system: metalloprotease activity (MMP) of the chondrocytes; experiment: Metalloprotease activity of the chondrocytes in alginate beads after stimulation with IL-1β and activation with APMA; format: cell-based, bovine; conditions: IL-1β 20 ng/ml, 1 mM APMA
Protocol: Bovine chondrocytes were used as starting point and the methodology of the Example 2 was followed, but in this case each compound was tested at two concentrations (5 and 10 mM).
The chondrocytes were cultured for 21 days in alginate to produce extracellular matrix. After 2 days of stimulation with IL-1β and with or without compounds, the medium was renewed. The metalloprotease activity was then determined in the culture medium after 2 hours of incubation with 20 ng/ml of IL-1β, 1 mM of APMA and with or without the compounds. The metalloprotease activity was quantified using the substrate for metalloproteases TNO 211-F (I. Tchetverikov et al., Clin. Exp. Rheumatol. 21, 711-8 (2003)).
(§1) The evaluation of the differences between all compounds and the control condition was assayed using analysis of variance (ANOVA). Then, the LSD test was performed to determine the difference between each compound and the control condition. They were considered statistically significant when p≦0.05.

[2] = test system: chondrocytes of bovine origin; experiment: Proliferation of chondrocytes measured through DNA levels (alginate beads); format: cell-based; conditions: 10 days culture in alginate beads; for increase in DNA levels relative to the control (without compound): 10 mM; for effect on DNA levels per alginate bead (in words): 1, 5 and 10 mM, FIG. 1
Protocol: Chondrocytes of bovine origin were isolated using digestion with collagenase following a previously described process (B. Beekman et al., Exp. Cell Res., 237, 135-141 (1997)).
The isolated bovine chondrocytes were cultured following a methodology described in the literature (J. DeGroot, et al., 266, 303-310 (2001)). The chondrocytes were transferred to an alginate support matrix, forming alginate beads which contain the cells at a concentration of 2.5×10^6 cells/ml, and DMEM (Dulbecco's Modified Eagle's Medium) with Glutamax was added to them supplemented with ascorbic acid, penicillin, streptomycin and FCS (foetal cow serum). After 24 hours, the medium was renewed and the chondrocytes contained in alginate beads (5 beads/well, with 250 μl of medium/well, in plates of 48 wells) were cultured in the absence (control) or presence of the compound to test (at concentrations of 1, 5 and 10 mM). The medium was regenerated twice a week. At the end of 10 days, the beads were collected (5 beads in each well, n=3 wells per condition) and they were stored at a temperature of −20° C. until making the analysis.
To quantify DNA levels, the beads were digested with papain and Hoechst 33258 (bisbenzimide) dye was used. DNA levels per alginate bead were determined.
as §1

[3] = test system: chondrocytes of bovine origin; experiment: Release of glycosaminoglycans from the chondrocytes in alginate beads after stimulation with IL-1β; format: cell-based; conditions: IL-1β 20 ng/ml, 48 hours; for effect on release of GAGs by the chondrocytes (in words): 10 mM, FIG. 2
Protocol: Chondrocytes of bovine origin were cultured for 21 days in alginate beads as support matrix; approximately 100 beads in 75 cm^2 culture dishes in 25 ml of medium, without adding the compounds to be tested. The medium was regenerated twice a week. After 21 days of culture, the beads were transferred to 48-well plates, 5 beads per well, 250 μl of medium per well. The compounds to be tested were added on day 21 (mannosamine hydrochloride, glucosamine hydrochloride and N-acetylglucosamine) to evaluate the effect on the degradation of the extracellular matrix after stimulation with IL-1β (20 ng/ml). Each compound was tested at concentrations of 1 and 10 mM. In each experiment each concentration was tested at n=3 wells, except in the control (n=8 wells). Once the alginate beads have been incubated with IL-1β (20 ng/ml) and the compounds during 48 hours, the culture medium was collected (day 21 to day 23). The GAGs content in the beads and in the culture medium on day 23 was measured (release of GAGs mediated by aggrecanase). The GAGs content was determined, after digestion with papain, with the Blyscan™ assay (kit) from Biocolor Ltd.
The results were expressed as a percentage of released GAGs with respect to total GAGs.
as §1

bovine chondrocytes = experiment: Glycosaminoglycan content per chondrocyte (GAG with respect to DNA); format: cell-based; conditions: for effect on GAGs levels per chondrocyte (in words): 5 and 10 mM, FIG. 4
Protocol: Bovine chondrocytes were used as starting point and the same methodology was followed as in Example 1 (chondrocyte proliferation measured through DNA levels), but in this case each compound was tested at two concentrations (5 and 10 mM).
The GAG content was determined, after digestion with papain, with the Blyscan™ assay (kit) from Biocolor Ltd.
as §1

| SMILES | reduction in metalloprotease activity with respect to the control ([1]; 10 mM) | effect on metalloprotease activity (in words) ([1]; 5 and 10 mM, FIG. 3) | increase in DNA levels relative to the control (without compound) [2] | effect on DNA levels per alginate bead (in words) ([2]; hydrochloride) | effect on release of GAGs by the chondrocytes (in words) [3] | reduction of the release of GAGs with respect to the control (culture without compound) ([3]; upper concentration (10 mM)) | effect on GAGs levels per chondrocyte (in words) (bovine chondrocytes) | effect on DNA levels per alginate bead (in words) [2] | increase of GAG content per chondrocyte with respect to the control (culture without product) (bovine chondrocytes; 10 mM) |
| --- | --- | --- | --- | --- | --- | --- | --- | --- | --- |
| Cl.N[C@@H]1C(O)O[C@H](CO)[C@@H](O)[C@@H]1O (stereo partly shown) [mannosamine hydrochloride] | 30% | the only one which reduced metalloprotease activity | 10 times | highest levels of DNA/bead; also recorded: dose-dependent increase in DNA levels | reduced the release of GAGs | 30% |  |  |  |
| CC(=O)N[C@H]1C(O)O[C@H](CO)[C@@H](O)[C@@H]1O (stereo partly shown) [N-acetylglucosamine, reference compound] |  |  |  |  |  |  | No significant effect | No significant effect |  |
| Cl.N[C@H]1C(O)O[C@H](CO)[C@@H](O)[C@@H]1O (stereo partly shown) [glucosamine hydrochloride, reference compound] |  |  | 4 times |  | reduced the release of GAGs |  |  | dose-dependent increase in DNA levels |  |
| CC(=O)N[C@@H]1C(O)O[C@H](CO)[C@@H](O)[C@@H]1O (stereo partly shown) [N-acetylmannosamine] |  |  |  |  |  |  | dose-dependent increase in GAGs levels per chondrocyte |  | 63% |
